Common to all, as to type: cell-based
Assay [1] addresses T1, mitochondrial complex I (NADH: ubiquinone oxidoreductase) (Rattus norvegicus, UniProt A6K8N6+P03889+Q641Y2). The conditions noted are these: read-out: % inhibition at 200 μM.
Assay [2] deals with T1, mitochondrial complex I (NADH: ubiquinone oxidoreductase). The conditions noted are these: read-out: % inhibition at 10 μM.
Assay [3] shares this target. The note with it: read-out: % inhibition at 10 μM. This is another data set of the same source.
For assay [4] the target is unchanged. The note with it: read-out: % inhibition at 10 μM. The source holds these as a separate data set.
Assay [5] shares this target. The note with it: read-out: % inhibition at 10 μM. This is another data set of the same source.
Assay [6] shares this target. The conditions noted are these: read-out: % inhibition at 10 μM. The source holds these as a separate data set.

Where two headings read alike, the source gives them in different places.

As to `C[n+]1ccc(-c2ccccc2)cc1` [A, 1-methyl-4-phenylpyridinium], the inhibition – broadly, how much of the control response was suppressed – at 200 µM in assay [1] was found to be 12.5%.

As for `CCN1C(=Cc2ccc3ccccc3[n+]2CC)C=Cc2ccccc21` [B, 2,2’-cyanine], the inhibition at 10 µM in assay [2] was determined as 70.8%.

For `CCN1C=CC(=Cc2cc[n+](CC)c3ccccc23)c2ccccc21` [C, 4,4’-cyanine], in assay [3], the inhibition at 10 µM is 60.8%.

In the case of `CCN1C(=CC=Cc2oc3ccccc3[n+]2CC)Oc2ccccc21` [D, DiOC2(3)], the inhibition at 10 µM in assay [4] stood at 79%.

Consider `CCCN1C(=CC=Cc2sc3ccccc3[n+]2CCC)Sc2ccccc21` [E, DiSC3(3)], for which the inhibition at 10 µM in assay [5] was 83%.

In the case of `CCCN1C(=CC=CC=Cc2sc3ccccc3[n+]2CCC)Sc2ccccc21` [F, DiSC3(5)], the inhibition at 10 µM in assay [5] turned out to be 83%.

Regarding `C=C(C)[C@H]1Cc2c(ccc3c2O[C@@H]2COc4cc(OC)c(OC)cc4[C@@H]2C3=O)O1` [H, rotenone], in assay [6], the inhibition at 10 µM was determined as 88%.

(Values after paper PMC6245648 (Chemical research in toxicology, 2016).)
